Data taken from article PMC11064632, “Tetracyclic homoisoflavanoid (+)-brazilin: a natural product inhibits c-di-AMP-producing enzyme and Streptococcus mutans biofilms” (Microbiology Spectrum, 2024).
Where a name gives a salt, the structure may show the parent alone.

Columns and labels:
[1] = biological target: T1, smDAC (S. mutans diadenylate cyclase, CdaA/DacA family) (Streptococcus mutans, UniProt Q8DTC4); experiment: intrinsic tyrosine fluorescence quenching (modified Stern-Volmer); supported by HPLC enzyme inhibition, IC50 […], Ki […]; assay type: binding
T1 construct: recombinant smDAC (from 116aa to 265aa)
T1 sequence (Q8DTC4 entry or part of it): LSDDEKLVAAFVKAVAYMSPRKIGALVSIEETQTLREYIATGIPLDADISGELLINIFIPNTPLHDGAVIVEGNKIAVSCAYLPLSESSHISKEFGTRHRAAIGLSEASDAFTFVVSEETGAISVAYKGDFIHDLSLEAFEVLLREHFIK

[2] = biological target: T1, smDAC (S. mutans diadenylate cyclase, CdaA/DacA family); experiment: biochemical; design: HPLC quantification of conversion of ATP into c-di-AMP by recombinant smDAC; conditions: read-out: Normalized Enzymatic Inhibition (%)
Protocol: Eleven “hits” were validated using HPLC to eliminate false positives from the coralyne assay. […] (+)-Brazilin (NSC 8661), showing the greatest inhibitory activity, was further studied in a dose-dependent manner. Representative chromatograms of ATP (100 µM) and c-di-AMP (50 µM) standards were used as references to validate retention times (Fig. 3A and B). […] Representative chromatograms of HPLC reactions treated with dose-dependent concentrations were also obtained (Fig. S5). Excitingly, (+)-brazilin inhibited the conversion of ATP into c-di-AMP in a dose-dependent manner with an IC50 value of 25.1 ± 0.98 µM (Fig. 3H; Table S1). […] HPLC was also used to evaluate and compare bromophenol thiohydantoin, suramin, and tannic acid, all reported tmDisA inhibitors, to brazilin and 10% DMSO negative control.

[3] = tested on: Nc1ncnc2c1ncn2[C@@H]1O[C@H](COP(=O)(O)OP(=O)(O)OP(=O)(O)O)[C@@H](O)[C@H]1O; experiment: purified protein; conditions: Mn2+ substrate-binding site

## Oc1ccc2c(c1)OC[C@]1(O)Cc3cc(O)c(O)cc3[C@H]21 [NSC 8661, (+)-brazilin]
[1]
  Kd: 11.9 µM
[2]
  inhibition at 50 µM: 77.8%
  inhibition at 100 µM: 87.1%

## O=C1NC(=S)N/C1=C\c1cc(Br)cc(Br)c1O [bromophenol thiohydantoin]
[2]
  inhibition at 50 µM: 3.7%

## Cc1ccc(C(=O)Nc2ccc(S(=O)(=O)O)c3cc(S(=O)(=O)O)cc(S(=O)(=O)O)c23)cc1NC(=O)c1cccc(NC(=O)Nc2cccc(C(=O)Nc3cc(C(=O)Nc4ccc(S(=O)(=O)O)c5cc(S(=O)(=O)O)cc(S(=O)(=O)O)c45)ccc3C)c2)c1 [suramin hexasodium salt]
[2]
  inhibition at 50 µM: 1.2%

## O=C(OC[C@H]1O[C@@H](OC(=O)c2cc(O)c(O)c(OC(=O)c3cc(O)c(O)c(O)c3)c2)[C@H](OC(=O)c2cc(O)c(O)c(OC(=O)c3cc(O)c(O)c(O)c3)c2)[C@@H](OC(=O)c2cc(O)c(O)c(OC(=O)c3cc(O)c(O)c(O)c3)c2)[C@@H]1OC(=O)c1cc(O)c(O)c(OC(=O)c2cc(O)c(O)c(O)c2)c1)c1cc(O)c(O)c(OC(=O)c2cc(O)c(O)c(O)c2)c1 [tannic acid]
[2]
  inhibition at 50 µM: 22.2%

## smDAC (S. mutans diadenylate cyclase, CdaA/DacA family) (Streptococcus mutans UA159)
[3]
  Km: 93.0 ± 3.98 µM
  Vmax: 5.54 µM/min
